Data as given in patent publication EP0944596B1, “1-ACRYLOYLINDOLINE DERIVATIVES AND THEIR USE AS PRODRUGS OF ANTICANCER AGENTS” (Auckland Uniservices Limited, priority 1996, dated 1998).

What was measured:
[1] = background statement, literature; cited from earlier work
UV4 cells [2] = assay: Growth inhibition (cytotoxicity) of UV4 cells, 18 h drug exposure, methylene blue staining; type: cell-based; conditions: Cricetulus griseus
Experimental: (§1) To evaluate the activity of a compound UV4 cells were maintained in exponential phase growth (doubling times 14 and 15 h respectively) using Alpha MEM containing fetal calf serum (10% v/v) without antibiotics, and were subcultured twice weekly by trypsinization. Bulk cultures were prepared for experiments by seeding cells in spinner flasks at 10^4 cells/mL in the above medium with addition of penicillin (100 IU/mL) and streptomycin (100 µg/mL). Cultures were initiated in 96-well microtiter trays to give 200 (AA8) or 300 (UV4) cells in 0.05 mL per well. After growth in a CO2 incubator for 24 h, drugs were added in culture medium, using serial two-fold dilutions to provide duplicate cultures at five different concentrations for each of eight drugs (plus eight controls) per tray. After 18 h drugs were removed by washing cultures three times with fresh medium, and the trays were incubated for a further 78 h. Cell density was then determined by staining with metbylene blue as described [Finlay, G.J.; Baguley, B.C.; Wilson, W.R. Anal. Biochem., 1984, 139: 272-277]. The IC50 was calculated as the drug concentration providing 50% inhibition of growth relative to the controls.
(§2) To evaluate the activation of the compound by E. coli nitroreductase 2 (NR2) the experiment was repeated but in addition purified E. coli nitroreductase enzyme (1 µg/mL) and NADH (1 mM, as cofactor) was added during the entire time of the incubation. As a comparison the experiment was also repeated but with the addition only of NADH and not NR2.
(§3) Where multiple determinations were carried out the IC50 is given as an average ± SEM. Where one determination only was carried out a single IC50 value is given.

UV4 cells [3] = assay: Activation by E. coli nitroreductase 2 (NR2): growth inhibition of UV4 cells with purified enzyme and NADH added; type: cell-based; conditions: for IC50: Cricetulus griseus, UV4 cells, purified E. coli nitroreductase enzyme (1 µg/mL) and NADH (1 mM) during the entire incubation, read-out: IC50 (nM) drug + NADH + NR2; for Ratio*: IC50 drug alone/IC50 drug + NADH + NR2, intra-experiment ratios, 1080 min
Experimental: as §1, §2, §3

[4] = 18 h exposure, then 78 h further incubation, average ± SEM where multiple determinations, read-out: IC50 (nM) drug alone
[5] = NADH (1 mM) added, no NR2, 18 h exposure, read-out: IC50 (nM) drug + NADH

For `COc1c(O)c2c(c3cc(C(=O)N4CCc5c4c(O)c(OC)c4[nH]c(C(=O)N6CC7CC78C6=CC(=O)c6[nH]cc(C)c68)cc54)[nH]c13)CCN2C(N)=O` (stereo not drawn) [CC-1065], the IC50 [1] is given as “low pM range”.

With `CCCC(=O)Nc1cc(/C=C/C(=O)N2CC(CCl)c3ccc([N+](=O)[O-])cc32)n(C)c1` (stereo not drawn) [Compound 7, 1-[(E)-3-(4-butyramido-1-methyl-2-pyrrole)acryloyl]-3-(chloromethyl)-6-nitroindoline] the IC50 (UV4 cells [2]; [4]) was 2940 ± 320 nM, the IC50 (UV4 cells [2]; [5]) was 1080 ± 340 nM and the IC50 (UV4 cells [3]) was 43 ± 4 nM. For the same compound, the “Ratio*” value (UV4 cells [3]) was 70±13.

With `CCCC(=O)Nc1cc(/C=C/C(=O)N2CC(CCl)c3ccc(N)cc32)n(C)c1` (stereo not drawn) [Compound 8, 6-amino-1-[(E)-3-(4-butyramido-1-methyl-2-pyrrole)acryloyl]-3-(chloromethyl)indoline] the IC50 (UV4 cells [2]; [4]) was 38 nM, the IC50 (UV4 cells [2]; [5]) was 24 nM and the IC50 (UV4 cells [3]) was 35 nM. For the same compound, the “Ratio*” value (UV4 cells [3]) was 1.1.

For `Cn1cccc1C(=O)Nc1cccc(/C=C/C(=O)N2CC(CCl)c3ccc([N+](=O)[O-])cc32)c1` (stereo not drawn) [Compound 12, 1-[(E)-3-(1-methylpyrrole-2-carboxamido)cinnamoyl]-3-chloromethyl-6-nitroindoline], the IC50 (UV4 cells [2]; [4]) was ~5000 nM and the “Ratio*” value (UV4 cells [3]) was “ca. 30”.

Compound `CC(=O)Nc1cccc(/C=C/C(=O)N2CC(CCl)c3ccc([N+](=O)[O-])cc32)c1` (stereo not drawn) [Compound 13, 1-[(E)-3-(acetylamino)cinnamoyl]-3-chloromethyl-6-nitroindoline] has an IC50 (UV4 cells [2]; [4]) of 335 nM, an IC50 (UV4 cells [2]; [5]) of 339 nM and an IC50 (UV4 cells [3]) of 74 ± 23 nM. The “Ratio*” value (UV4 cells [3]) was 3.5.
